“And” between values parts separate entries of the source, which are not always exact repeats. Equal entries are not always repeated. Structures can show the parent of a compound that is named as a salt. Where two headings read alike, the source gives them in different places. Peptide text beside a SMILES is read from it. * marks the point of attachment. Lauroyl = CCCCCCCCCCCC(=O)*
Tests used:
[1] = system: Candida tropicalis ATCC 7349; test: MIC broth microdilution; type: cell-based; settings: C. tropicalis; for Selectivity Index (HC50/MIC): Table S1; for MIC: Candida tropicalis, ATCC7349, read-out: MIC
Procedure: (§1) The antimicrobial activity of these compounds was assessed against selected yeast and bacterial strains: Candida albicans ATCC 90028 (CA9), Candida rugosa ATCC 10571 (CR), Candida glabrata ATCC 66032 (CG), Candida parapsilosis ATCC 22019 (CP), Candida tropicalis ATCC 7349 (CT), Candida auris ATCC 21092 (CA), and Cyberlindnera jadinii ATCC 60459. Frozen yeast stocks were plated on Sabouraud agar (SBA) and incubated at 30 °C for 24 h. Three to four colonies from each strain were then suspended in RPMI 1640 (Roswell Park Memorial Institute medium, Sigma- Aldrich, Merck, Darmstadt, Germany) to prepare bacterial dispersions of ~1.5 × 10^6 CFU/mL.
(§2) A broth microdilution assay was used to calculate MIC values. Twofold serially diluted compounds in RPMI 1640 medium (from 256 to 2 μg/mL), were dispensed (100 μL per well) into a 96-well plate. Then, 100 μL of a yeast starter culture was added to each well to reach a final inoculum of 7.5 × 10^5 CFU/mL. Wells containing only nutrient broth without the tested surfactant served as growth controls. Microbial growth was assessed by turbidity, which reflects increases in biomass and cell count. […] To confirm the obtained MICs, 20 μL of 0.015% (w/v) resazurin was dispensed to each well and incubated for 3 h at 30 °C. Metabolic activity was evidenced by a color change from blue to pink, thereby confirming the MIC value.

[2] = system: Candida glabrata ATCC 66032; test: MIC broth microdilution; type: cell-based; settings: for Selectivity Index (HC50/MIC): Table S1; for MIC: Nakaseomyces glabratus, read-out: MIC
Procedure: as §1, §2

[3] = system: Candida rugosa ATCC 10571; test: MIC broth microdilution; type: cell-based; settings: C. rugosa; for Selectivity Index (HC50/MIC): Table S1; for MIC: Diutina rugosa, ATCC10571, read-out: MIC
Procedure: as §1, §2

Candida auris ATCC 21092 = test: MIC broth microdilution; type: cell-based; settings: C. auris; for Selectivity Index (HC50/MIC): Table S1; for MIC: Candidozyma auris, ATCC21092, read-out: MIC
Procedure: as §1, §2

[4] = system: Cyberlindnera jadinii ATCC 60459 (C. jardinii); test: MIC broth microdilution; type: cell-based; settings: for Selectivity Index (HC50/MIC): C. jardini, Table S1; for MIC: Williopsis jadinii
Procedure: as §1, §2

[5] = system: Candida parapsilosis ATCC 22019; test: MIC broth microdilution; type: cell-based; settings: C. parapsilosis; for Selectivity Index (HC50/MIC): Table S1; for MIC: Lodderomyces parapsilosis, ATCC22019, read-out: MIC
Procedure: as §1, §2

[6] = system: Candida albicans ATCC 90028; test: MIC broth microdilution; type: cell-based; settings: C. albicans; for Selectivity Index (HC50/MIC): Table S1; for MIC: Candida albicans, ATCC90028, read-out: MIC
Procedure: as §1, §2

[7] = set-up: method as in PMID 36559096; settings: conductivity values; cited from earlier work
[8] = Surface tension, pendant drop tensiometer (cmc, γc); type: physicochemical; settings: for cmc: from surface tension
Procedure: Surface tension was measured using a custom-built pendant drop tensiometer, as described in detail in reference. Briefly, a droplet of surfactant solution is formed at the tip of a straight-cut Teflon tube. The image of the droplet is captured using a webcam, and its shape is analyzed by fitting the droplet profile to the Laplace–Young equation [14], To minimize evaporation, all measurements were conducted in a saturated humid atmosphere. The use of this technique is especially well-suited for cationic surfactants because it helps to mitigate complications related to surface adsorption. Critical micelle concentration values (cmc) were determined by finding the intersection of the linear fits before and after the break in the curves.

erythrocytes = test: Hemolytic activity assay; type: cell-based; settings: rabbit erythrocytes
Procedure: Fresh rabbit blood was obtained from the Animal Facility of the CID-CSIC (Research and Development Center, Spanish National Research Council, Barcelona, Spain). Sample collection was conducted in strict compliance with the bioethical guidelines established under Spanish legislation. Erythrocytes were isolated by centrifugation (3000 rpm/10 min). The supernatant was discarded, and the erythrocytes were washed three times with PBS (phosphate-buffered saline, pH 7.4) and then resuspended in PBS at a concentration of 8 × 10^9 cells/mL. Subsequently, varying volumes of a concentrated surfactant solution were added to Eppendorf tubes containing 25 μL of erythrocyte suspension. PBS was then added to bring the total volume to 1 mL. The samples were gently shaken for 10 min at room temperature and centrifuged at 10,000 rpm for 5 min. Hemolysis was evaluated by measuring the absorbance of the supernatant at 540 nm and comparing it to that of a 100% hemolysis control (erythrocytes treated with distilled water). The HC50, defined as the surfactant concentration that induces 50% hemolysis, was determined from the concentration–response curves: % hemolysis= Abstest compound/AbsBasal haemolytic activity ×100

[9] = ATCC66032, 24 h, C. glabrata, RPMI 1640, 24 h, 30 °C
[10] = ATCC66032, C. glabrata, value in parentheses

| Compound | Selectivity Index (HC50/MIC) [1] | MIC ([1]; RPMI 1640, 24 h, 30 °C) | MIC ([1]; value in parentheses) | Selectivity Index (HC50/MIC) ([2]; C. glabrata) | MIC [2, 9] | MIC [2, 10] | Selectivity Index (HC50/MIC) [3] | MIC ([3]; RPMI 1640, 24 h, 30 °C) | MIC ([3]; value in parentheses) | Selectivity Index (HC50/MIC) (Candida auris ATCC 21092) | MIC (Candida auris ATCC 21092; RPMI 1640, 24 h, 30 °C) | MIC (Candida auris ATCC 21092; value in parentheses) | Selectivity Index (HC50/MIC) [4] | MIC ([4]; ATCC60459, 24 h) | Selectivity Index (HC50/MIC) [5] | MIC ([5]; RPMI 1640, 24 h, 30 °C) | MIC ([5]; value in parentheses) | Selectivity Index (HC50/MIC) [6] | MIC ([6]; RPMI 1640, 24 h, 30 °C) | MIC ([6]; value in parentheses) | other results |
| --- | --- | --- | --- | --- | --- | --- | --- | --- | --- | --- | --- | --- | --- | --- | --- | --- | --- | --- | --- | --- | --- |
| CCCCCCCCCCCC(=O)NC(Cc1ccccc1)C(=O)NC(CCCNC(=N)N)C(=O)OC (stereo not drawn) [C12PAM] (Lauroyl-Phe-Arg-OMe; configuration not given here) | 1.4 | 16 µg/mL | 29 µM | 1.4 | 16 µg/mL | 29 µM | 6 | 4 µg/mL | 7 µM | 0.7 | 32 µg/mL | 58 µM | 0.4 | 64 µg/mL | 1.4 | 16 µg/mL | 29 µM | 1.4 | 16 µg/mL | 29 µM | MIC ([4]; ATCC60459): 116 µM; cmc Cond [7]: 1.2 mM; γc (surface tension at the cmc) [8]: 29.5 ± 2.7 mNm^−1; cmc [8]: 0.7 mM; HC50 (erythrocytes; 10 min, room temperature): 23 ± 0.8 µg/mL; HC50 (erythrocytes; value in parentheses): 42 ± 1.5 µM |
| CCCCCCCCCCCCNC(=O)C(N)Cc1ccccc1 (stereo not drawn) [PNHC12, phenylalanine dodecyl amide hydrochloride] | 0.6 | 32 µg/mL | 88 µM | 0.6 | 32 µg/mL | 88 µM | 0.6 | 32 µg/mL | 88 µM | 0.6 | 32 µg/mL | 88 µM | 0.6 | 32 µg/mL and 88 µM | 0.6 | 32 µg/mL | 88 µM | 2.5 | 8 µg/mL | 22 µM | cmc Cond [7]: 1.2 mM; γc (surface tension at the cmc) [8]: 26.6 ± 0.8 mNm^−1; cmc [8]: 1.2 mM; HC50 (erythrocytes; 10 min, room temperature): 20 ± 0.6 µg/mL; HC50 (erythrocytes; value in parentheses): 55 ± 1.7 µM |

— PMC12452389, “Arginine-Derived Cationic Surfactants Containing Phenylalanine and Tryptophan: Evaluation of Antifungal Activity, Biofilm Eradication, Cytotoxicity, and Ecotoxicity” (Journal of Xenobiotics, 2025)
